pIC50: −log10 of the molar value. Values joined by “and” are separate entries in the source; they are usually repeats but may differ in a detail not shown here. Identical values can stand only once. Like-named read-outs stand apart in the source and are kept apart here.
Assays:
Papain = molecular target: T1, Papain (Carica papaya, UniProt P00784); test: Papain inhibitory activity (casein hydrolysis); assay type: biochemical
T1 construct: purchased Boehringer Mannheim AG
T1 sequence (P00784 134-345): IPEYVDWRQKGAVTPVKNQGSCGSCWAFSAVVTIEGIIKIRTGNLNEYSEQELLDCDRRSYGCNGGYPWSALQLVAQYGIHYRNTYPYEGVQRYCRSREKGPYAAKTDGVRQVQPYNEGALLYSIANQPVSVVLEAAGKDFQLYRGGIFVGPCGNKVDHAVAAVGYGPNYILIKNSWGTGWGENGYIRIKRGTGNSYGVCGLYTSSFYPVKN
Protocol: (§1) The 0.2 ml of a solution of papain (300 μg/ml, Boeringer Mannheim AG), 0.25 ml of 40 mM cysteine solution dissolved in 5 mM EDTA solution adjusted pH to 6.8 with sodium hydroxide and 0.55 ml of the 50 mM phosphate buffer (pH 6.8) with or without inhibitor were mixed and incubated at 40° C. for 10 min., followed by adding 4 ml of 1.5% casein solution dissolved in a 50 mM phosphate buffer (pH 6.8) to carry out a reaction at 40° C. for 15 min. Then, 2 ml of 1.1M trichloroacetic acid is added to terminate the reaction. After being left to stand at room temperature for one hour, the reaction mixture is centrifuged at 3500 rpm for 10 minutes and absorbance (S) of the trichloroacetic acid soluble fraction at 280 mμ is measured. Similarly, absorbance (B) at 280 mμ is measured when no inhibitors are added. The percent inhibition was calculated by the following formula: […]
(§2) The amount of inhibitor for 50% inhibition was expressed as IC50.

Solubility = assay type: physicochemical
From the text: Insoluble in and pyridine.

[1] = system: production of IgE antibody; test: Activity on the production of IgE antibody in mice (PCA reaction); assay type: in vivo, BDF1 strain male mice; conditions: for IgE antibody titers (PCA antibody titers), individual mice: 200 mg/Kg ip 2 hours before immunization with egg albumin + aluminum hydroxide, blood after 14 days, reciprocal of maximum dilution with positive blueing in rats; for Effect on production of IgE antibody (in words): mice, 200 mg/Kg ip
Protocol: Activity on the production of IgE antibody was examined by the following method.
Estatin A or Estatin B dissolved in physiological saline were administered ip to BDF1 strain male mice weighing 18-22 g (one group 5 mice) at a dose of 200 mg/Kg. Control group (10 mice) received only physiological saline. After 2 hours from the administration, 4 mg of aluminum hydroxide together with 10 μg of egg albumin was administered ip to immunize them. After 14 days from the immunization, blood was collected and IgE antibody titer was assayed by PCA reaction (See "International Archives of Allergy and Applied Immunology" Vol. 48, Page 16, 1975.).
That is, serum samples were serially diluted and injected intradermally into the back of Wistar strain male rats weighing 200-250 g. After 48 hours, 1 ml of 1% Evans blue in physiological saline containing 2 mg of egg albumin was administered iv and rats were killed 30 min. later, and blueing of saline were observed. […] The results are shown below. ______________________________________ PCA Antibody TITERS Test drugs IgE antibody titers ______________________________________ Estatin A <100 <100 <100 <100 <100 Estatin B <100 <100 <100 <100 100 Control 400 800 800 800 800 800 1600 1600 1600 3200 ______________________________________

Ficin = Ficin inhibitory activity (casein hydrolysis); assay type: biochemical; conditions: enzyme 60 μg protein; substrate casein
Protocol: as §1, §2
(§3) Inhibitory activities against ficin (protein amount: 60 μg, manufactured by Boehringer Mannheim AG) and bromelain (protein content: 100 μg, manufactured by Boehringer Mannheim AG) are also measured by the similar method.

Stability = conditions: stable at a pH of
Trypsin = Trypsin inhibitory activity (casein hydrolysis); assay type: biochemical; conditions: enzyme 1000 μg protein; substrate casein
From the text: (§4) The enzyme reactions were all measured according to the prescribed methods.
(§5) (α-chymotrypsin and pepsin used are those manufactured by PL Biochemical Co., and trypsin is that manufactured by Wako Junyaku Co.)

α-Chymotrypsin = molecular target: T2, α-Chymotrypsin (Bos taurus, UniProt P00766); test: α-Chymotrypsin inhibitory activity (casein hydrolysis); assay type: biochemical
T2 construct: purchased PL Biochemical Co
From the text: as §4, §5

mice = test: Acute toxicity; assay type: in vivo; conditions: ip, 400 mg/Kg
Pepsin = molecular target: T3, Pepsin (Sus scrofa, UniProt P00791); test: Pepsin inhibitory activity (casein hydrolysis); assay type: biochemical
T3 construct: purchased PL Biochemical Co
From the text: as §4, §5

Bromelain = molecular target: T4, Bromelain (Ananas comosus, UniProt P14518); test: Bromelain inhibitory activity (casein hydrolysis); assay type: biochemical
T4 construct: purchased Boehringer Mannheim AG
T4 sequence (P14518 1-212): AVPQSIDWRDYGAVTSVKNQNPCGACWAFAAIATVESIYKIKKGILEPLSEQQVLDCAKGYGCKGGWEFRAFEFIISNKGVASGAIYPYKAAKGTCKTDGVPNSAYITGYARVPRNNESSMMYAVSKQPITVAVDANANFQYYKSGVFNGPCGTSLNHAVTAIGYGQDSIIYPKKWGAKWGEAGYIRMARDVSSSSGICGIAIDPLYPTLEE
Protocol: as §1, §2, §3

[2] = system: production of IgG antibody; test: Activity on the production of IgG antibody in mice (passive hemagglutination test); assay type: in vivo, BDF1 strain male mice; conditions: for IgG antibody titers, individual mice: 200 mg/Kg ip 2 hours before immunization with egg albumin + Freund complete adjuvant, blood after 2 weeks, passive hemagglutination; for Effect on production of IgG antibody (in words): mice, 200 mg/Kg ip
Protocol: Activity on the production of IgG antibody was examined by the following method.
Estatin A or Estatin B were administered ip to BDF1 strain male mice weighing 18-22 g (one group 5 mice) at a dose of 200 mg/Kg. Control group (10 mice) received only physiological saline.
After 2 hours from the administration each mouse was immunized by intradermal injection with 0.2 mg/0.1 ml of egg albumin together with equal volume of Freund complete adjuvant into the 2 separate sites of the back of the mice. After 2 weeks blood was collected and antibody titers were determined by passive hemagglutination test using glutalaldehyde as coupling reajent. The results are shown below. ______________________________________ Test drugs IgG antibody titers ______________________________________ Estatin A 12800, 6450, 25600 12800, 12800 Estatin B 6400, 25600, 12800 25000, 12800 Control 12800, 25600, 25600, 12800, 6450 12800, 12800, 12800, 12800, 12800 ______________________________________

T3 sequence (P00791 60-385): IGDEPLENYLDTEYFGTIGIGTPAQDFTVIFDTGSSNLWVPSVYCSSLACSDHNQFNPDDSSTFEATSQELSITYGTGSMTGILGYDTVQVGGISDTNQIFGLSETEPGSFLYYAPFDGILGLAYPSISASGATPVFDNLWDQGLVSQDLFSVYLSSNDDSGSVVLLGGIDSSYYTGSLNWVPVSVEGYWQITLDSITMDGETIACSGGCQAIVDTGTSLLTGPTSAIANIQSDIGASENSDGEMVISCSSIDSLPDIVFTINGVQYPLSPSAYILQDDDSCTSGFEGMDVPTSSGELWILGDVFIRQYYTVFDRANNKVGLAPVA

SMILES	IC50 (Papain; enzyme 60 μg protein, substrate casein, read-out: IC50 concentration, Papain (converted)) [nM]	Solubility in benzene, chloroform, ethyl acetate and petroleum ether (Solubility)	Solubility in water, acetic acid, dimethyl sulfoxide and pyridine (Solubility)	IgE antibody titers (PCA antibody titers), individual mice [1]	Effect on production of IgE antibody (in words) [1]	IC50 concentration, Ficin (Ficin) [µg/mL]	Stability: pH at which stable (Stability)	IC50 concentration, Trypsin (Trypsin) [µg/mL]	pIC50 (α-Chymotrypsin; enzyme 200 μg protein, substrate casein, read-out: IC50 concentration, α-Chymotrypsin)	pIC50 (Papain)	Acute toxicity (mice)	pIC50 (Pepsin; enzyme 100 μg protein, substrate casein, read-out: IC50 concentration, Pepsin)	IC50 (Bromelain; enzyme 100 μg protein, substrate casein, read-out: IC50 concentration, Bromelain (converted)) [nM]	IgG antibody titers, individual mice [2]	Effect on production of IgG antibody (in words) [2]	pIC50 (α-Chymotrypsin)	pIC50 (Pepsin)	pIC50 (Bromelain)
N=C(N)NCCCCNC(=O)[C@H](Cc1ccccc1)NC(=O)C1OC1C(=O)O (mixture of isomers) [N-[N-(D- and L-3-trans-carboxyoxiran-2-carbonyl-L-phenylalanyl]agmatine]	74.1																	
N=C(N)NCCCCNC(=O)[C@H](Cc1ccccc1)NC(=O)[C@H]1O[C@@H]1C(=O)O [Estatin A, N-[N-(L-3-trans-carboxyoxiran-2-carbonyl)-L-phenylalanyl]agmatine]		Insoluble	Soluble	< 100	inhibit the production of IgE antibody	0.039	2-9	> 50	< 3.89	7.18	no toxic effect	< 3.89	370	12800 (3×) and 6450 and 25600	do not inhibit the production of IgG antibody			
N=C(N)NCCCCNC(=O)[C@H](Cc1ccc(O)cc1)NC(=O)[C@H]1O[C@@H]1C(=O)O [Estatin B, N-[N-(L-3-trans-carboxyoxiran-2-carbonyl)-L-tyrosyl]agmatine]		Insoluble	Soluble	< 100 (4×) and 100	inhibit the production of IgE antibody	0.041		> 50		7.18	no toxic effect			6400 and 25600 and 12800 (2×) and 25000	do not inhibit the production of IgG antibody	< 3.91	< 3.91	6.45

Reference: patent publication US4732910A, “Enzyme Inhibiting substance” (Toyo Jozo Co, Ltd., priority 1985, dated 1988)
